The source of these data is PMC11882969 (Nature Communications, 2025).

Values joined by “and” are separate entries in the source; they are usually repeats but may differ in a detail not shown here. Equal entries are not always repeated. “Also recorded” adds a separate entry of the source. Where two headings read alike, the source gives them in different places.

Data set [1] has as its system mice. As to the kind of experiment: Rotarod test. It is filed as in vivo, mouse. Conditions: for dose showing locomotor deficits or sedation, rotarod: i.p. A general note: In the rotarod test animals must keep their balance on a rotating rod.
Data set [2] in a line: Pharmacokinetics: plasma, brain, CSF. Conditions: for brain AUC0→inf / brain Cmax / level in CSF: 0.2 mg/kg i.p., CD-1 mice; for concentration at 1 min / concentration at 5 min / concentration at 15 min / concentration at 30 min / concentration at 60 min / concentration at 120 min / concentration at 240 min / concentration at 360 min / concentration at 480 min / half-life / AUC(0-inf) / Cmax: male, CD-1, mouse, 0.2 mg/kg; for concentration at 1 min / concentration at 5 min / concentration at 15 min / concentration at 30 min / concentration at 60 min / concentration at 120 min / concentration at 240 min / concentration at 360 min / concentration at 480 min: intraperitoneal; for half-life / AUC(0-inf) / Cmax: ip.

Data set [3] relates to mice. Conditions: for therapeutic window, analgesia vs catalepsy: Figure 6f.
Experimental: For all behavioral tests, the experimenter was always blind to treatment. Animals were first habituated for 30-60 min in Plexiglas cylinders and then tested 30 min after i.p. or i.t. injection of the compounds. The thermal (Hargreaves, hotplate and tail flick) and ambulatory (rotarod) tests were conducted as described[96]. Briefly, hindpaw thermal sensitivity was measured with a radiant heat source (Hargreaves) or on a hotplate at 52 °C. For the tail flick assay, sensitivity was measured by immersing the tail into a 50 °C water bath. For the ambulatory (rotarod) test, before testing with any compound, mice underwent three trainings on three consecutive days until they reach 300 sec. Each training has three sessions of five min each. Therapeutic window was calculated as the ratio of the minimum dose of side effect phenotype to the minimum dose of analgesic phenotype.
The target in data set [4] is T1, hCB2 (Homo sapiens, UniProt P34972). Briefly: Radioligand competition binding, HEK293 cells expressing human CB2R. Conditions: hCB2, log[drug], replicate columns. Details: expressed in transfected cells; host or cells: HEK293 cells stably expressing human CB2R (Laboratory of Ken Mackie).
A short description of data set [5]: Dynamic light scattering, colloidal aggregation. It counts as physicochemical. Conditions: Log[compound, replicates, sheet FigS2b. The protocol:
Samples were prepared as 8-point half-log dilutions in filtered 50 mM KPi buffer, pH 7.0 with final DMSO concentration at 1% (v/v). Colloidal particle formation was measured using DynaPro Plate Reader II (Wyatt Technologies). All compounds were screened in triplicate.

The target in data set [6] is T1, hCB2. As to the kind of experiment: Tango β-arrestin-2 recruitment, HTLA cells, CB2R. It is filed as cell-based. Conditions: hCB2; for EC50: read-out: Tango ß-arrestin recruitment EC50. Details: expressed in transfected cells; host or cells: HEK293 cells stably expressing human CB2R (Laboratory of Ken Mackie). Background: Recruitment of arrestin is a read-out of receptor activation apart from second messengers.
Experimental: The Tango β-arrestin-2 recruitment assays were performed as described[83]. In brief, HTLA cells (a gift from the laboratory of R. Axel) were transiently transfected with human CB1R or CB2R Tango DNA construct overnight in DMEM supplemented with 10 % FBS, 100 µg ml−1 streptomycin and 100 U ml−1 penicillin. The transfected cells were then plated into poly-L-lysine-coated 384-well white clear-bottom cell culture plates in DMEM containing 1% dialysed FBS at a density of 10,000–15,000 cells per well. After incubation for 6 h, the plates were added with drug solutions prepared in DMEM containing 1% dialysed FBS for overnight incubation. On the day of assay, medium and drug solutions were removed and 20 µl per well of BrightGlo reagent (Promega) was added. The plates were further incubated for 20 min at room temperature and counted using the Wallac TriLux Microbeta counter (PerkinElmer). The results were analysed using GraphPad Prism 9. Each experiment was performed in triplicate and functional IC50 values were determined from the mean of three independent experiments.

T1 sequence (P34972 whole entry): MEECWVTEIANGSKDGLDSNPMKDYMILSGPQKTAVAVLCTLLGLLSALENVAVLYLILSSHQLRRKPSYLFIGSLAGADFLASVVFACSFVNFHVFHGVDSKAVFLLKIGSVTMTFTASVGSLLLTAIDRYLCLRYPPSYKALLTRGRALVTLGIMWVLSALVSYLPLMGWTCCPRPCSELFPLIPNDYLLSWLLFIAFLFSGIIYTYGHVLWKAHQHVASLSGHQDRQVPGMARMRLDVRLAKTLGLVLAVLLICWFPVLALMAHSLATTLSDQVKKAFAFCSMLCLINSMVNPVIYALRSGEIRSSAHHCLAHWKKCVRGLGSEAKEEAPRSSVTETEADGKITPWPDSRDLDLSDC

As for `Cc1cc(C(=O)NC(C)(c2ccco2)c2ccco2)nn1-c1cccc(C(F)(F)F)c1` [‘4936], the “rotarod performance (Figure6b), individual animals” value (“rotarod performance (Figure6b)” below) in data set [1] (Dose 0.2 mg/kg) is 300 and 283. Moreover, the “rotarod performance (Figure6b)” value in data set [1] (Dose 0.5 mg/kg) is 300 and 234 and 278 and 166 and 268 and 275 and 273. For the same compound, the “rotarod performance (Figure6b)” value in data set [1] (Dose 1.0 mg/kg) was 201 and 300 and 258 and 267 and 295 and 215 and 252 and 282 and 235. The “rotarod performance (Figure6b)” value in data set [1] (Dose 2.0 mg/kg) is 298 and 90 and 300 and 163 and 260. For the same compound, the “dose showing locomotor deficits or sedation, rotarod” value in data set [1] was 2 mg/kg. Further, in data set [2], the “brain AUC0→inf” value was found to be 5610 ng·min/mL, the “brain Cmax” value is recorded as 26.2 ng/g and the “level in CSF” value was “but not CSF compartments”. Further, in data set [2] (CSF), the concentration at 1 min came to 0 ng/mL, the concentration at 5 min was 0 ng/mL, the concentration at 15 min came to 0 ng/mL and the concentration at 30 min is 0 ng/mL. Besides, in data set [2] (CSF), the concentration at 60 min came out at 0 ng/mL, the concentration at 120 min came out at 0 ng/mL, the concentration at 240 min was 0 ng/mL and the concentration at 360 min was 0 ng/mL. In addition, the concentration at 480 min in data set [2] (CSF) was determined as 0 ng/mL. In data set [2] (brain), this compound displayed a concentration at 1 min of 0 ng/g, a concentration at 5 min of 2.39 ng/g, a concentration at 15 min of 12 ng/g and a concentration at 30 min of 25.2 ng/g. In addition, in data set [2] (brain), the concentration at 60 min turned out to be 26.1 ng/g, the concentration at 120 min turned out to be 17.9 ng/g, the concentration at 240 min amounted to 6.06 ng/g and the concentration at 360 min stood at 7.4 ng/g. In data set [2] (brain), this compound had a concentration at 480 min of 1.98 ng/g and a half-life of 2.08 h. In data set [2] (plasma), this compound returned a concentration at 1 min of 0 ng/mL, a concentration at 5 min of 0.512 ng/mL, a concentration at 15 min of 1.63 ng/mL and a concentration at 30 min of 4.54 ng/mL. In data set [2] (plasma), this compound yielded a concentration at 60 min of 3.59 ng/mL, a concentration at 120 min of 3.55 ng/mL, a concentration at 240 min of 1.18 ng/mL and a concentration at 360 min of 0.867 ng/mL. Further, in data set [2] (plasma), the concentration at 480 min came to 0 ng/mL; the AUC(0-inf) is 14.4 ng·h/mL; the Cmax was 4.5 ng/mL and 11 nM. For the same compound, in data set [3] (Figure 6e, vs rotarod), the “therapeutic window, Acetone” value stood at 10 and the “therapeutic window, Hot Plate” value is 4. Moreover, the “therapeutic window, analgesia vs catalepsy” value in data set [3] was “greater than 5”. Also, the “radioligand binding, competition curve point (normalized)” value (from here on “radioligand binding … (normalized)”) in data set [4] (M = -6.64345) is 0.8301 and 3.196. Besides, the “radioligand binding … (normalized)” value in data set [4] (M = -7.35666) was 5.0447 and 7.642. For the same compound, the “radioligand binding … (normalized)” value in data set [4] (M = -8.06987) was 20.2107 and 22.6869. Further, the “radioligand binding … (normalized)” value in data set [4] (M = -8.78308) was 55.4917 and 61.8361. Besides, in data set [4] (M = -9.49629), the “radioligand binding … (normalized)” value was 84.5147 and 77.217. Besides, the “radioligand binding … (normalized)” value in data set [4] (M = -10.2095) is 91.2197 and 92.4778. Also, the “radioligand binding … (normalized)” value in data set [4] (M = -10.9227) was 85.5045 and 95.2415. Moreover, the “radioligand binding … (normalized)” value in data set [4] (M = -11.6359) was 108.381 and 91.8049.
As to `Cc1c(C(=O)OCC2CSc3ccccc3O2)cnn1Cc1ccccc1` (stereo not shown) [‘7800], the DLS scattering intensity is 1640000 and 1120000 and 1230000 in data set [5] (uM] 0); 22000000 and 23800000 and 19200000 in data set [5] (uM] 1); 97300000 and 53900000 and 120000000 in data set [5] (uM] 1.49996); 210000000 and 155600000 and 163000000 in data set [5] (uM] 2); 631259 and 1270000 and 2510000 in data set [5] (uM] -0.500011); 884292 and 807566 and 1180000 in data set [5] (uM] -1).
In the case of `COC(=O)[C@@H]1[C@@H]2CCC[C@@H]2CN1C(=O)c1cc(C)n(-c2cccc(C(F)(F)F)c2)n1` [‘6439], in data set [6], the “Tango ß-arrestin recruitment Emax” value came out at 14% [13 – 15], the “Tango ß-arrestin recruitment pEC50” value was 6.5 [6.4 – 6.6] and the EC50 is 338 nM.
For `COC(=O)[C@@](C)(NC(=O)c1cc(C)n(-c2cccc(C(F)(F)F)c2)n1)c1cccs1` [‘1350], the “rotarod performance (Figure6b)” value in data set [1] (Dose 0.1 mg/kg) was 275 and 300. The “rotarod performance (Figure6b)” value in data set [1] (Dose 0.2 mg/kg) is 300 and 226 and 231 and 240 and 274 and 298 and 237 and 211. For the same compound, the “rotarod performance (Figure6b)” value in data set [1] (Dose 0.5 mg/kg) is 123 and 300 and 128 and 153. Further, the “dose showing locomotor deficits or sedation, rotarod” value in data set [1] came out at 0.5 mg/kg. Moreover, in data set [2], the “brain AUC0→inf” value amounted to 8180 ng·min/mL, the “brain Cmax” value came out at 44.1 ng/g and the “level in CSF” value is listed as “but not CSF compartments; also recorded: below the quantification limit”. Also, in data set [2] (CSF), the concentration at 1 min stood at 0 ng/mL, the concentration at 5 min was 1.2 ng/mL, the concentration at 15 min came out at 0 ng/mL and the concentration at 30 min came out at 0 ng/mL. Besides, in data set [2] (CSF), the concentration at 60 min was determined as 0 ng/mL, the concentration at 120 min stood at 0 ng/mL, the concentration at 240 min worked out at 0 ng/mL and the concentration at 360 min was 0 ng/mL. In data set [2] (CSF), this compound came in with a concentration at 480 min of 0.14 ng/mL. In data set [2] (brain), this compound displayed a concentration at 1 min of 0 ng/g, a concentration at 5 min of 8.24 ng/g, a concentration at 15 min of 41.8 ng/g and a concentration at 30 min of 29.5 ng/g. In data set [2] (brain), the concentration at 60 min was 44.1 ng/g, the concentration at 120 min worked out at 33.1 ng/g, the concentration at 240 min turned out to be 4.35 ng/g and the concentration at 360 min was determined as 8.81 ng/g. In data set [2] (brain), this compound gave a concentration at 480 min of 2.87 ng/g and a half-life of 1.87 h. In data set [2] (plasma), the concentration at 1 min stood at 0 ng/mL, the concentration at 5 min is 6.41 ng/mL, the concentration at 15 min is 10.8 ng/mL and the concentration at 30 min stood at 5.48 ng/mL. In addition, in data set [2] (plasma), the concentration at 60 min came out at 7.25 ng/mL, the concentration at 120 min came out at 6.15 ng/mL, the concentration at 240 min was 0.376 ng/mL and the concentration at 360 min came to 1.1 ng/mL. Also, in data set [2] (plasma), the concentration at 480 min worked out at 0.486 ng/mL; the AUC(0-inf) is 25.2 ng·h/mL; the Cmax was 10.8 ng/mL and 25 nM; the half-life turned out to be 1.85 h. Moreover, in data set [3] (Figure 6e, vs rotarod), the “therapeutic window, Acetone” value is 10; the “therapeutic window, Hot Plate” value is listed as 5; the “therapeutic window, Tail Flick” value is 5. Moreover, in data set [3], the “therapeutic window, analgesia vs catalepsy” value is “at least a ten-fold window”. Moreover, in data set [3] (Figure 6d, vs open field), the “therapeutic window, Acetone” value was 4; the “therapeutic window, Hot Plate” value is given as 2; the “therapeutic window, Tail Flick” value is recorded as 2. For the same compound, the “therapeutic window, analgesia vs hypolocomotion, sedation, catalepsy” value in data set [3] (mice) is 2-10 fold and 2-20 fold. Besides, the “radioligand binding … (normalized)” value in data set [4] (M = -6.64345) was 1.586 and -0.1332. Besides, the “radioligand binding … (normalized)” value in data set [4] (M = -7.35666) was 2.208 and 1.359. In addition, in data set [4] (M = -8.06987), the “radioligand binding … (normalized)” value was 13.0908 and 10.365. In data set [4] (M = -8.78308), the “radioligand binding … (normalized)” value was 37.5933 and 37.49. Further, the “radioligand binding … (normalized)” value in data set [4] (M = -9.49629) is 71.1443 and 45.0839. Also, the “radioligand binding … (normalized)” value in data set [4] (M = -10.2095) was 95.3669 and 77.3781. Besides, in data set [4] (M = -10.9227), the “radioligand binding … (normalized)” value was 103.545 and 89.3952. The “radioligand binding … (normalized)” value in data set [4] (M = -11.6359) was 105.504 and 103.118.
For `COC(=O)[C@@H]1[C@@H]2CCC[C@@H]2CN1C(=O)c1cc(C)n(-c2cccc(Cl)c2)n1` (racemic) [‘10010], in data set [6], the “Tango ß-arrestin recruitment Emax” value stood at 18% [17 – 19], the “Tango ß-arrestin recruitment pEC50” value was 6.3 [6.2 – 6.3] and the EC50 was determined as 556 nM.

What is called half-life is the time in which the quantity being followed falls by half. Broadly, the AUC(0-inf) is the area under the concentration-time curve extrapolated to infinity. A word on the Cmax: it is the highest concentration seen after dosing. The EC50 is the midpoint of the concentration-response curve.
